The values below come from PubChem BioAssay AID330 (DTP/NCI, 2004).

This assay relates to P388 leukemia ip, CD2F1 mice, survival T/C. Kind of assay: NCI In Vivo Anticancer Drug Screen. Data for tumor model P388 Leukemia (intraperitoneal) in CD2F1 (CDF1) mice. As to conditions: endpoint: median survival time, higher = longer survival. The method in brief:
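Mice carrying the transplanted tumor received test compound or vehicle. Survival was recorded in each group, and the value is the treated-group measurement divided by that of the vehicle-treated control group.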

[1] abbreviates: dose: 100.0 mg/kg/injection, schedule: Q01DX009 (ip), vehicle: Klucel (hydroxypropylcellulose) (HPC).
Where [2] appears, read: dose: 200.0 mg/kg/injection, schedule: Q01DX009 (ip), vehicle: Klucel (hydroxypropylcellulose) (HPC).
Setting [3] is: dose: 50.0 mg/kg/injection, schedule: Q01DX005 (ip), vehicle: Klucel (hydroxypropylcellulose) (HPC).
Where [4] appears, read: dose: 100.0 mg/kg/injection, schedule: Q01DX005 (ip), vehicle: Klucel (hydroxypropylcellulose) (HPC).
The mark [5] stands for this setting: dose: 200.0 mg/kg/injection, schedule: Q01DX005 (ip), vehicle: Klucel (hydroxypropylcellulose) (HPC).
The mark [6] stands for this setting: dose: 60.0 mg/kg/injection, schedule: Q01DX005 (ip), vehicle: saline with Tween-80.
The mark [7] stands for this setting: dose: 120.0 mg/kg/injection, schedule: Q01DX005 (ip), vehicle: saline with Tween-80.
Where [8] appears, read: dose: 240.0 mg/kg/injection, schedule: Q01DX005 (ip), vehicle: saline with Tween-80.
[9] abbreviates: dose: 100.0 mg/kg/injection, schedule: Q04DX003 (ip), vehicle: saline with Tween-80.
[10] abbreviates: dose: 50.0 mg/kg/injection, schedule: Q01DX009 (ip), vehicle: saline.
The mark [11] stands for this setting: dose: 100.0 mg/kg/injection, schedule: Q01DX009 (ip), vehicle: saline.
Where [12] appears, read: dose: 200.0 mg/kg/injection, schedule: Q04DX003 (ip), vehicle: saline with Tween-80.
[13] abbreviates: dose: 400.0 mg/kg/injection, schedule: Q04DX003 (ip), vehicle: saline with Tween-80.
[14] abbreviates: dose: 12.5 mg/kg/injection, schedule: Q01DX009 (ip), vehicle: saline with Tween-80.
The mark [15] stands for this setting: dose: 25.0 mg/kg/injection, schedule: Q01DX009 (ip), vehicle: saline with Tween-80.
The mark [16] stands for this setting: dose: 50.0 mg/kg/injection, schedule: Q01DX009 (ip), vehicle: saline with Tween-80.
Where [17] appears, read: dose: 50.0 mg/kg/injection, schedule: Q01DX005 (ip), vehicle: saline with Tween-80.

The structures appear in SMILES notation. Several values for one entry are separate records, joined by “and”; a condition that tells them apart may be missing. Equal values may be shown once. Toxic doses and inconclusive results are not listed.

As for `O=S(=O)(OCC(COS(=O)(=O)c1ccccc1)(OS(=O)(=O)c1ccccc1)OS(=O)(=O)c1ccccc1)c1ccccc1`, the T/C is 105 % of control under setting [1]; 104 % of control under setting [2]; 100 % of control (dose: 400.0 mg/kg/injection, schedule: Q01DX009 (ip), vehicle: Klucel (hydroxypropylcellulose) (HPC)).
Regarding `Clc1cccc2nc(-c3ccccn3)n(CCc3ccccn3)c12`, the T/C runs as follows: under setting [3], 96 % of control; under setting [4], 100 % of control; under setting [5], 100 % of control.
Take `CCC(=O)C(=O)c1ccc(O)cc1O`: the T/C is, setting by setting: (dose: 50.0 mg/kg/injection, schedule: Q01DX009 (ip), vehicle: Klucel (hydroxypropylcellulose) (HPC)) 108 % of control; under setting [1], 108 % of control; under setting [2], 105 % of control.
As for `CC1Cn2c(nnc2-c2ccccc2O)S1` (stereo unspecified), the T/C was 96 % of control under setting [6], 100 % of control under setting [7] and 101 % of control under setting [8].
Consider `COC(=O)NC(=S)Nc1nnc(C)s1`, for which the T/C is 103 % of control (dose: 25.0 mg/kg/injection, schedule: Q04DX003 (ip), vehicle: saline with Tween-80); 256 % of control (dose: 50.0 mg/kg/injection, schedule: Q04DX003 (ip), vehicle: saline with Tween-80); 105 % of control under setting [9].
Take `Clc1ccc(/C=N/Nc2nnc3c(n2)[nH]c2ccccc23)cc1`: the T/C by setting is: (dose: 100.0 mg/kg/injection, schedule: Q04DX002 (ip), vehicle: saline with Tween-80) 99 % of control; (dose: 200.0 mg/kg/injection, schedule: Q04DX002 (ip), vehicle: saline with Tween-80) 100 % of control; (dose: 400.0 mg/kg/injection, schedule: Q04DX002 (ip), vehicle: saline with Tween-80) 90 % of control.
With `CC1=CC=C(C(=O)C(Br)C(Br)c2ccccc2)C1` (stereo unspecified), the T/C (dose: 6.25 mg/kg/injection, schedule: Q01DX009 (ip), vehicle: Klucel (hydroxypropylcellulose) (HPC)) was 92 % of control; the T/C (dose: 12.5 mg/kg/injection, schedule: Q01DX009 (ip), vehicle: Klucel (hydroxypropylcellulose) (HPC)) is 92 % of control; the T/C (dose: 25.0 mg/kg/injection, schedule: Q01DX009 (ip), vehicle: Klucel (hydroxypropylcellulose) (HPC)) is 89 % of control.
`CCOC(=O)c1c(-c2ccccc2)noc1N`: the T/C reads like this: (dose: 25.0 mg/kg/injection, schedule: Q01DX005 (ip), vehicle: saline) 100 % of control; (dose: 50.0 mg/kg/injection, schedule: Q01DX005 (ip), vehicle: saline) 100 % of control; (dose: 100.0 mg/kg/injection, schedule: Q01DX005 (ip), vehicle: saline) 98 % of control; (dose: 200.0 mg/kg/injection, schedule: Q01DX005 (ip), vehicle: saline) 100 % of control; (dose: 400.0 mg/kg/injection, schedule: Q01DX005 (ip), vehicle: saline) 104 % of control.
On to `CCOC(=O)CCCCCCNC(=O)N1c2c(nc(N)[nH]c2=O)NCC1CNc1ccc(C(=O)NC(CCC(=O)O)C(=O)O)cc1` (stereo unspecified), for which the T/C (dose: 50.0 mg/kg/injection, schedule: Q01DX001 (ip), vehicle: sodium bicarbonate) was 106 % of control; the T/C (dose: 100.0 mg/kg/injection, schedule: Q01DX001 (ip), vehicle: sodium bicarbonate) was 100 % of control; the T/C (dose: 200.0 mg/kg/injection, schedule: Q01DX001 (ip), vehicle: sodium bicarbonate) was 100 % of control.
In the case of `CC1(C)OC2(C)CCC1C1C2N1C(=O)c1ccc([N+](=O)[O-])cc1` (stereo unspecified), the T/C under setting [3] is 96 % of control, the T/C under setting [4] is 102 % of control and the T/C under setting [5] was 110 % of control.
Consider `Cc1ccc(S(=O)(=O)NNC(=O)c2nc3ccccc3c(=O)[nH]2)cc1`, for which the T/C reads like this: under setting [6], 100 % of control; under setting [7], 92 % of control.
In the case of `CCOP(=O)(OCC)C1OCC(O)C(C2OC(P(=O)(OCC)OCC)OCC2O)O1` (stereo unspecified), the T/C is 109 % of control under setting [10]; 112 % of control under setting [11]; 112 % of control (dose: 200.0 mg/kg/injection, schedule: Q01DX009 (ip), vehicle: saline).
Take `O=C(Nc1ccc(Nc2ccc(NC(=O)c3ccccc3)c3c2C(=O)c2ccccc2C3=O)c2c1C(=O)c1ccccc1C2=O)c1ccccc1`: the T/C was 95 % of control under setting [9], 100 % of control under setting [12] and 100 % of control under setting [13].
With `O=C(C[n+]1ccccc1)N/N=C/c1cccc([N+](=O)[O-])c1`, the T/C was 102 % of control under setting [14], 99 % of control under setting [15] and 103 % of control under setting [16].
For `COc1nc(NC2OC(CO)C(O)C(O)C2O)c(/C=N/O)c(=O)n1C` (stereo unspecified), the T/C was 99 % of control (dose: 60.0 mg/kg/injection, schedule: Q01DX005 (ip), vehicle: saline); 103 % of control (dose: 120.0 mg/kg/injection, schedule: Q01DX005 (ip), vehicle: saline); 99 % of control (dose: 240.0 mg/kg/injection, schedule: Q01DX005 (ip), vehicle: saline).
Take `CCn1c2ccccc2c2cc(NC(=S)NC(=O)c3ccccc3)ccc21`: the T/C by setting is: under setting [17], 87 % of control; (dose: 100.0 mg/kg/injection, schedule: Q01DX005 (ip), vehicle: saline with Tween-80) 86 % of control; (dose: 200.0 mg/kg/injection, schedule: Q01DX005 (ip), vehicle: saline with Tween-80) 87 % of control.
Turning to `O=S(=O)(O)c1ccc2cc3nn(-c4ccc(/C=C/c5ccc(-n6nc7cc8ccc(S(=O)(=O)O)cc8cc7n6)cc5S(=O)(=O)O)c(S(=O)(=O)O)c4)nc3cc2c1`, the T/C is 97 % of control under setting [10] and 97 % of control under setting [11].
On to `Nc1nc(=O)nc2[nH]c3c4cccc5cccc(c3nc12)c54`, for which the T/C is 96 % of control under setting [6]; 100 % of control (dose: 100.0 mg/kg/injection, schedule: Q04DX002 (ip), vehicle: Klucel (hydroxypropylcellulose) (HPC)); 93 % of control under setting [7]; 100 % of control (dose: 200.0 mg/kg/injection, schedule: Q04DX002 (ip), vehicle: Klucel (hydroxypropylcellulose) (HPC)); 100 % of control under setting [8]; 101 % of control (dose: 400.0 mg/kg/injection, schedule: Q04DX002 (ip), vehicle: Klucel (hydroxypropylcellulose) (HPC)).
For `CCn1c2ccccc2c2cc(NC(N)=S)ccc21`, the T/C reads like this: (dose: 12.5 mg/kg/injection, schedule: Q01DX005 (ip), vehicle: saline with Tween-80) 100 % of control; (dose: 25.0 mg/kg/injection, schedule: Q01DX005 (ip), vehicle: saline with Tween-80) 102 % of control; under setting [17], 100 % of control and 98 % of control.
Take `CC(=O)[C@@]1(O)CC[C@H]2[C@@H]3C=C(C)C4=CC(=O)CC[C@]4(C)[C@@]3(F)[C@@H](O)C[C@@]21C`: the T/C under setting [14] is 100 % of control; the T/C under setting [15] was 90 % of control; the T/C under setting [16] was 109 % of control; the T/C under setting [9] is 91 % of control; the T/C under setting [12] was 95 % of control; the T/C under setting [13] was 100 % of control.
